Reference: patent US12534439B2, “Xanthohumol derivatives and methods for making and using” (Oregon State University, priority 2021, dated 2026)

Test system: LPS-activated RAW 264.7 cells
Test: Nitric oxide (NO) assay, Griess reagent
Type: cell-based
Details: LPS 1 μg/mL, 24 hours
Protocol: Nitric Oxide (NO) Assay. NO secreted by LPS-activated RAW 264.7 cells into the culture medium was determined as nitrite by the Griess reagent. RAW 264.7 1 cells obtained from the American Type Culture Collection (Manassas, VA, USA) were cultured in DMEM supplemented with 2 mM glutamine, antibiotics (100 U/mL penicillin and 100 μg/mL streptomycin), and 10% heat-inactivated fetal bovine serum. The cells were initially grown in 75 cm^2 culture flasks at 37° C. in a humidified incubator with 5% CO2. After reaching 80% confluency, the cells were split by seeding them on 96-well plates (0.2 mL/well) at a density of 1.5×10^5 cells/mL. After a 24-hour incubation at 37° C., the cells were treated with LPS (1 μg/mL) with or without test compounds in various concentrations. Vehicle control cells were treated with dimethyl sulfoxide alone at a final concentration of 0.1%. Culture media from control and treated cells were collected after 24 hours of incubation and were frozen at −80° C. before analysis. For the determination of NO (as […]), […], aliquots of the thawed culture media were mixed with an equal volume of Griess reagent on a 96-well plate. […] The samples were incubated for 10 minutes at room temperature and then the absorbance was read at 550 nm using a SpectraMax 190 (Molecular Devices, Sunnyvale, CA) plate reader.

COc1cc(O)c(CC=C(C)C)c(O)c1-c1cc(-c2ccc(O)cc2)on1 [isoxazole derivative, 4-(5-(4-hydroxyphenyl)isoxazol-3-yl)-5-methoxy-2-(3-methylbut-2-en-1-yl)benzene-1,3-diol] was tested, and the “Concentration from which anti-inflammatory activity (decreased NO production) was displayed” value was roughly 10 µM.
